# Test results published in patent publication US20220370485A1, “COMPOUNDS AND METHODS FOR TREATING OR PREVENTING CARDIOVASCULAR DISEASES AND CONDITIONS” (Lexicon Pharmaceuticals, Inc., priority 2021, published 2022).
# Where two headings read alike, the source gives them in different places.
# Tests used:
# [1] = test system: patients with type 2 diabetes mellitus, chronic kidney disease, and additional cardiovascular risk; settings: T2DM + CKD patients
# [2] = test system: patients with type 2 diabetes mellitus recently hospitalized for worsening heart failure; settings: for Difference (95% CI) in least-squares mean change in KCCQ-12 score to month 4 / Difference (95% CI) in least-squares mean change in estimated GFR: sotagliflozin minus placebo
# [3] = sotagliflozin vs placebo, listed as sotagliflozin
# [4] = sotagliflozin vs placebo, time-to-event analysis
# [5] = T2DM + worsening heart failure, N = 608
# [6] = T2DM + worsening heart failure, N = 608, listed as sotagliflozin
# [7] = sotagliflozin vs. placebo, T2DM + worsening heart failure
# [8] = sotagliflozin vs. placebo, T2DM + worsening heart failure, listed as sotagliflozin
smiles,measurement,setting,value
"CCOc1ccc(Cc2cc([C@@H]3O[C@H](SC)[C@@H](O)[C@H](O)[C@H]3O)ccc2Cl)cc1 [Sotagliflozin, (2S,3R,4R,5S,6R)-2-(4-chloro-3-(4-ethoxybenzyl)phenyl)-6-(methylthio)tetrahydro-2H-pyran-3,4,5-triol]","Primary end point: total no. of deaths from cardiovascular causes, hospitalizations for HF, and urgent visits for HF - event rate","[1]; 200 mg once daily increased to 400 mg, N = 5292, median follow-up 16 months",5.6 no. of events/100 patient-yr
same,Deaths from any cause - event rate,[1]; N = 5292,3.5 no. of events/100 patient-yr
same,Deaths from any cause - no. of events,[1]; N = 5292,246
same,Deaths from cardiovascular causes - event rate,[1]; N = 5292,2.2 no. of events/100 patient-yr
same,Deaths from cardiovascular causes - no. of events,[1]; N = 5292,155
same,"First occurrence of a sustained decrease of ≥50% in the eGFR from baseline for ≥30 days, long-term dialysis, renal transplantation, or sustained eGFR of <15 ml/min/1.73 m2 for ≥30 days - event rate",[1]; N = 5292,0.5 no. of events/100 patient-yr
same,"First occurrence of a sustained decrease of ≥50% in the eGFR from baseline for ≥30 days, long-term dialysis, renal transplantation, or sustained eGFR of <15 ml/min/1.73 m2 for ≥30 days - no. of events",[1]; N = 5292,37
same,"Primary end point: total no. of deaths from cardiovascular causes, hospitalizations for HF, and urgent visits for HF - no. of events",[1]; N = 5292,400
same,"Total no. of deaths from cardiovascular causes, hospitalizations for HF, nonfatal myocardial infarctions, and nonfatal strokes - event rate",[1]; N = 5292,7.6 no. of events/100 patient-yr
same,"Total no. of deaths from cardiovascular causes, hospitalizations for HF, nonfatal myocardial infarctions, and nonfatal strokes - no. of events",[1]; N = 5292,541
same,"Total no. of deaths from cardiovascular causes, hospitalizations for HF, urgent visits for HF, and events of HF during hospitalization - event rate",[1]; N = 5292,6.4 no. of events/100 patient-yr
same,"Total no. of deaths from cardiovascular causes, hospitalizations for HF, urgent visits for HF, and events of HF during hospitalization - no. of events",[1]; N = 5292,453
same,"Total no. of deaths from cardiovascular causes, nonfatal myocardial infarctions, and nonfatal strokes - event rate",[1]; N = 5292,4.8 no. of events/100 patient-yr
same,"Total no. of deaths from cardiovascular causes, nonfatal myocardial infarctions, and nonfatal strokes - no. of events",[1]; N = 5292,343
same,Total no. of hospitalizations for HF and urgent visits for HF - event rate,[1]; N = 5292,3.5 no. of events/100 patient-yr
same,Total no. of hospitalizations for HF and urgent visits for HF - no. of events,[1]; N = 5292,245
same,Deaths from any cause - Hazard Ratio (95% CI),[1]; sotagliflozin vs placebo,0.99 (0.83-1.18)
same,Deaths from cardiovascular causes - Hazard Ratio (95% CI),[1]; sotagliflozin vs placebo,0.90 (0.73-1.12)
same,"Primary end point: total no. of deaths from cardiovascular causes, hospitalizations for HF, and urgent visits for HF - Hazard Ratio (95% CI)",[1]; sotagliflozin vs placebo,0.74 (0.63-0.88)
same,"Total no. of deaths from cardiovascular causes, hospitalizations for HF, nonfatal myocardial infarctions, and nonfatal strokes - Hazard Ratio (95% CI)",[1]; sotagliflozin vs placebo,0.72 (0.63-0.83)
same,"Total no. of deaths from cardiovascular causes, hospitalizations for HF, urgent visits for HF, and events of HF during hospitalization - Hazard Ratio (95% CI)",[1]; sotagliflozin vs placebo,0.76 (0.64-0.89)
same,"Total no. of deaths from cardiovascular causes, nonfatal myocardial infarctions, and nonfatal strokes - Hazard Ratio (95% CI)",[1]; sotagliflozin vs placebo,0.77 (0.65-0.91)
same,Total no. of hospitalizations for HF and urgent visits for HF - Hazard Ratio (95% CI),[1]; sotagliflozin vs placebo,0.67 (0.55-0.82)
same,Deaths from cardiovascular causes - Hazard Ratio (95% CI),[1]; [3],0.90
same,"Primary end point: total no. of deaths from cardiovascular causes, hospitalizations for HF, and urgent visits for HF - Hazard Ratio (95% CI)",[1]; [3],0.74
same,Total no. of hospitalizations for HF and urgent visits for HF - Hazard Ratio (95% CI),[1]; [3],0.67
same,Original coprimary end point: first occurrence of death from cardiovascular causes or hospitalization for heart failure - hazard ratio,[1]; [4],0.77
same,"Original coprimary end point: first occurrence of death from cardiovascular causes, nonfatal myocardial infarction, or nonfatal stroke - hazard ratio",[1]; [4],0.84
same,Deaths from any cause - rate,[2]; [5],(13.5) events per 100 person-years of follow-up
same,Deaths from any cause - total no. of events,[2]; [5],65
same,Deaths from cardiovascular causes - rate,[2]; [5],(10.6) events per 100 person-years of follow-up
same,Deaths from cardiovascular causes - total no. of events,[2]; [5],51
same,"Deaths from cardiovascular causes, hospitalizations and urgent visits for heart failure, and events of heart failure during hospitalization - rate",[2]; [5],(54.7) events per 100 person-years of follow-up
same,"Deaths from cardiovascular causes, hospitalizations and urgent visits for heart failure, and events of heart failure during hospitalization - total no. of events",[2]; [5],263
same,"Deaths from cardiovascular causes, hospitalizations for heart failure, nonfatal myocardial infarctions, and nonfatal strokes - rate",[2]; [5],(51.4) events per 100 person-years of follow-up
same,"Deaths from cardiovascular causes, hospitalizations for heart failure, nonfatal myocardial infarctions, and nonfatal strokes - total no. of events",[2]; [5],247
same,Hospitalizations and urgent visits for heart failure - rate,[2]; [5],(40.4) events per 100 person-years of follow-up
same,Hospitalizations and urgent visits for heart failure - total no. of events,[2]; [5],194
same,Least-squares mean change in estimated GFR,"[2]; T2DM + worsening heart failure, N = 608, during follow-up",−0.34 ml/min/1.73 m^2
same,Deaths from any cause - rate,[2]; [6],13.5 events per 100 person-years of
same,Deaths from cardiovascular causes - rate,[2]; [6],10.6 events per 100 person-years of
same,Least-squares mean change in KCCQ-12 score to month 4,"[2]; T2DM + worsening heart failure, N = 608, scores range from 0 to 100",17.7
same,Primary end point: deaths from cardiovascular causes and hospitalizations and urgent visits for heart failure - total no. of events,"[2]; T2DM patients with recent worsening heart failure, 200 mg once daily increased to 400 mg, N = 608, median follow-up 9.0 months",245
same,Primary end point: deaths from cardiovascular causes and hospitalizations and urgent visits for heart failure - rate,"[2]; T2DM patients with recent worsening heart failure, N = 608",(51.0) events per 100 person-years of follow-up
same,Primary end point: deaths from cardiovascular causes and hospitalizations and urgent visits for heart failure - rate,"[2]; T2DM patients with recent worsening heart failure, N = 608, listed as sotagliflozin",51.0 events per 100 person-years of
same,Absolute difference in rate of primary end-point events,"[2]; sotagliflozin group vs placebo group (51.0 vs 76.3), 95% CI, 5.1 to 45.6",25.3 events per 100 patient-years
same,Difference (95% CI) in least-squares mean change in KCCQ-12 score to month 4,[2],4.1 (1.3 to 7.0) points
same,Difference (95% CI) in least-squares mean change in estimated GFR,[2],−0.16 (−1.30 to 0.98) ml/min/1.73 m^2
same,Difference (95% CI) in least-squares mean change in KCCQ-12 score to month 4,[2]; listed as sotagliflozin,4.1 points
same,Difference (95% CI) in least-squares mean change in estimated GFR,[2]; listed as sotagliflozin,−0.16 ml/min/1.73 m^2
same,"Total number of deaths from cardiovascular causes and hospitalizations for heart failure, excluding urgent visits for heart failure - hazard ratio","[2]; sotagliflozin vs. placebo, 95% CI, 0.53 to 0.88",0.68
same,Deaths from any cause - Hazard Ratio (95% CI),[2]; [7],0.82 (0.59 to 1.14)
same,Deaths from cardiovascular causes - Hazard Ratio (95% CI),[2]; [7],0.84 (0.58 to 1.22)
same,"Deaths from cardiovascular causes, hospitalizations and urgent visits for heart failure, and events of heart failure during hospitalization - Hazard Ratio (95% CI)",[2]; [7],0.68 (0.54 to 0.86)
same,"Deaths from cardiovascular causes, hospitalizations for heart failure, nonfatal myocardial infarctions, and nonfatal strokes - Hazard Ratio (95% CI)",[2]; [7],0.72 (0.56 to 0.92)
same,Hospitalizations and urgent visits for heart failure - Hazard Ratio (95% CI),[2]; [7],0.64 (0.49 to 0.83)
same,Primary end point: deaths from cardiovascular causes and hospitalizations and urgent visits for heart failure - Hazard Ratio (95% CI),[2]; [7],0.67 (0.52 to 0.85)
same,Deaths from any cause - Hazard Ratio (95% CI),[2]; [8],0.82
same,Deaths from cardiovascular causes - Hazard Ratio (95% CI),[2]; [8],0.84
same,Primary end point: deaths from cardiovascular causes and hospitalizations and urgent visits for heart failure - Hazard Ratio (95% CI),[2]; [8],0.67
same,Original primary end point: first occurrence of either death from cardiovascular causes or hospitalization for heart failure - hazard ratio,"[2]; sotagliflozin vs. placebo, time-to-event analysis, 95% CI, 0.56 to 0.89",0.71
same,Subgroup analyses of the primary efficacy end point,"[2]; subgroups by geographic region, LVEF (<50% or ≥50%), timing of first dose, sex, age, renal function (FIG. 4)",consistent treatment effect
